From patent US11066369B2, “N-(pyridin-2-yl)pyridine-sulfonamide derivatives and their use in the treatment of disease” (Novartis AG, priority 2016, dated 2021)
Where a name gives a salt, the structure may show the parent alone.

Legend:
[1] = target: T1, delF508-CFTR (Homo sapiens, UniProt P13569, DEL508-508); assay: Measurement of delF508-CFTR functional activity in primary human bronchial epithelial cells (HBECs) using Multi-Transepithelial Clamp Circuit (MTECC-24) assay; format: cell-based; conditions: primary CF HBECs; for MTECC24 CFHBEC- Amax %: test compound added 24h before assay plus potentiator, relative to reference combination (2 μM corrector + 0.5 μM potentiator); for EC50: test compound added 24h before assay, in the presence of potentiator, mean of at least two replicates, read-out: MTECC24 CFHBEC- EC50
T1 construct: functional activity of the CFTR channel (Chloride ion transport) in patient derived primary human bronchial epithelial cells; host or cells: patient-derived primary human bronchial epithelial cells (delF508-CFTR)
T1 sequence (P13569 with tags, fused parts or gaps DEL508-508): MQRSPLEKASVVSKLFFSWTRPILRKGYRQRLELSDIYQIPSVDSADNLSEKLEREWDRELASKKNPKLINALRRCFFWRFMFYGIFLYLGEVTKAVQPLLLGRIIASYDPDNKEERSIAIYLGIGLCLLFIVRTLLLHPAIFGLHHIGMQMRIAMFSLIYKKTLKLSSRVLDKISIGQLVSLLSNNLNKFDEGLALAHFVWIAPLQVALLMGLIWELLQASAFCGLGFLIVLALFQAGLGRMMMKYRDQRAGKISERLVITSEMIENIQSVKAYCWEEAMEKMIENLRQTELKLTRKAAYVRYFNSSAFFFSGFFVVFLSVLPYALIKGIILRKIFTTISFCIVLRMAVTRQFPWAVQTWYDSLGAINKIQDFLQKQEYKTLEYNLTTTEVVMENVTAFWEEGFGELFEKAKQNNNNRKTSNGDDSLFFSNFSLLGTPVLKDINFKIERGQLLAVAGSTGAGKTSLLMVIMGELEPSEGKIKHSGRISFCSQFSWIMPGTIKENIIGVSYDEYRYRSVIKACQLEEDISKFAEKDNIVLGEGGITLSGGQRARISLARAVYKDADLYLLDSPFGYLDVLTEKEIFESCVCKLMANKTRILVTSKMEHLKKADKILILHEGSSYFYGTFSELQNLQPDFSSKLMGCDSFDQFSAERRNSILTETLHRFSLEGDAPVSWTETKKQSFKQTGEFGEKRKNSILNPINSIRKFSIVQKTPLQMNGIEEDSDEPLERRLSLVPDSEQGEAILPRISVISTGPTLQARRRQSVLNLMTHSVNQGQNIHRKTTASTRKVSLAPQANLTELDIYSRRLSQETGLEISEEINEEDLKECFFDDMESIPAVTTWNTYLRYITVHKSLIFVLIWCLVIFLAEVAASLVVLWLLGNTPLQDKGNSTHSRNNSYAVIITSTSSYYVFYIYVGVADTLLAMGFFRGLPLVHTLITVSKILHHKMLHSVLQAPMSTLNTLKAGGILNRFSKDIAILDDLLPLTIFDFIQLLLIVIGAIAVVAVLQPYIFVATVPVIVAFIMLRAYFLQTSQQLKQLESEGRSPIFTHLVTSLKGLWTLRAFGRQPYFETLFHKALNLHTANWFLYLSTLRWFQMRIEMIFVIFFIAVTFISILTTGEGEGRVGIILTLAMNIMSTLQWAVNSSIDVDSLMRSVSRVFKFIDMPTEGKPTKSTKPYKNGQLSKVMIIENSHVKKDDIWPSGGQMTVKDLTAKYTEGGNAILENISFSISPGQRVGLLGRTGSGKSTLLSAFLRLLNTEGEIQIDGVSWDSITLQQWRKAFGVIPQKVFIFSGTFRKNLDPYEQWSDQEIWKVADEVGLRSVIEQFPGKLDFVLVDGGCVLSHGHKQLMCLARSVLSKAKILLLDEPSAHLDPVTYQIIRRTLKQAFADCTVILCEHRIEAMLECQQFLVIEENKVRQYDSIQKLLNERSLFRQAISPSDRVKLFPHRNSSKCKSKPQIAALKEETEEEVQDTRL
Source text: [formula] Measurement of delF508-CFTR Functional Activity in Primary Human Bronchial Epithelial Cells (HBECs) Using Multi-Transepithelial Clamp Circuit (MTECC-24) Assay
This assay measures the functional activity of the CFTR channel (Chloride ion transport) in patient derived primary human bronchial epithelial cells with forskolin activation and in the presence of the CFTR corrector/potentiator combo.
Primary human delF508-CFTR bronchial epithelial cells were purchased from Asterand and cultured according to previously established methods (Fulcher et al. (2005) Methods Mol Med 107: 183-206). Briefly, vendor supplied cells were rapidly defrosted and added to a T175 flask in 50 mL growth media (Lonza BEBM media with Lonza BEGM singlequots). Media was replaced after 24h and then cells were fed every other day until cells were 80-90% confluent, at which point cells were cryopreserved. These P1 vials were thawed at 37° C. as needed and added to T175 flasks in 50 mL growth media at 5×10^5 cells/flask. Media was replaced after 24h, and then cells were fed every other day until 80-90% confluent. Cells were lifted with 5 mL accutase at 37° C. for 5 minutes, centrifuged at 1000 rpms for 5 min (300 g), and resuspended in differentiation media (50% BEBM in DMEM, BEGM singlequots, all trans retinoic acid (5×10^−8M)). Cells were then counted and cell suspension was added to collagen coated inserts at 3×10^4 cells/insert in 0.15 mL with 0.5 mL differentiation media on the basolateral side.
Apical and basolateral media were replaced on alternate days, and following day 7 (or when confluent plus 2 days), air liquid interface was established for approximately two weeks by removal of apical media. One day prior to use on the MTECC24 system (EP-Devices, EP Design, Belgium), 0.15 mL of warmed (37° C.) PBS was added to the apical surface of the cultures and returned to humidifier (37° C., 5% CO2 incubator) for 30 min before aspirating the apical surface to remove any mucus.
Compound treatments were then prepared. Compound dilutions, typically a 10 point concentration response with 1 in 3 dilution steps, were made in 100% DMSO before dilution 1 in 1000 into differentiation medium with a final DMSO concentration of 0.1% or 0.2% for the study. Compound containing medium was then transferred into the wells of a 24 well plate at 0.5 mL per well and warmed for 30 min in a 37° C. incubator prior to transferring washed inserts into the compound containing plates. Cells were incubated in compound containing medium (basolateral only) for 24h prior to measurement in the MTECC24 system.
Following 24 hr treatment, compound dilutions were prepared again, diluted 1 in 1000 into 37° C. assay medium (F-12 Coon's modified, 20 mM HEPES pH7.4 with TRIS Base, No FCS or bicarbonate). Cells which were treated for 24h with test compound were then transferred into plates containing 0.75 mL compound treatment in assay medium (basolateral) and 0.25 mL of the compound containing assay medium was added to the apical surface. The plates were then transferred to the heated plate compartments of the MTECC24 system for 45 min prior to measurements (this can also be done in a non-CO2 37° C. humidified incubator). Basolateral temperature should not exceed 36.5° C. and apical temperature should be approximately 35.5° C.
Modulators were added sequentially as follows while the MTECC24 instrument recorded the equivalent short circuit current (Ieq):
Prior to dilution into F-12 medium the stocks are as follows:
Amiloride stock is 10 mM in H2O
Forskolin Stock is 10 mM in 100% DMSO
(S)-3-amino-6-methoxy-N-(3,3,3-trifluoro-2-hydroxy-2-methylpropyl)-5-(trifluoromethyl)picolinamide is 0.5 mM stock in 100% DMSO
INH-172 (4-[[4-Oxo-2-thioxo-3-[3-trifluoromethyl)phenyl]-5-thiazolidinylidene]methyl]benzoic acid) stock is 30 mM in 100% DMSO
The data was normalized using the median signal from wells treated with 0.1% DMSO as a baseline. […]

[2] = target: T2, horseradish peroxidase (HRP) tagged delF508-CFTR (Homo sapiens, UniProt P13569, DEL508-508); assay: Measurement of delF508-CFTR-HRP surface expression in CFBE41o- cells; format: cell-based; conditions: delF508-CFTR-HRP surface expression, CFBE41o- cells; for Emax: read-out: DelF508-CFTR-HRP Amax %; for EC50: read-out: DelF508-CFTR-HRP EC50;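 for DelF508-CFTR-HRP Amax %: percent efficacy relative to reference corrector lumacaftor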
T2 construct: expressed in transfected cells
T2 sequence (P13569 with tags, fused parts or gaps DEL508-508): as above
Outline: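 CFBE41o- bronchial epithelial cells stably expressing delF508-CFTR with HRP in the fourth extracellular loop; expression induced 48h with 500 ng/mL doxycycline, then compounds added (top 10 μM, 10-point 3-fold series, ≤0.5% DMSO) for 24h at 37° C. Surface HRP measured by luminescence with cell-impermeant substrate; EC50 from logistic fit of triplicates, plate-normalized to lowest concentration; efficacy also relative to a reference corrector.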

| MTECC24 CFHBEC- Amax % [1] | EC50 [1] | Emax [2] | EC50 [2] | SMILES |
| --- | --- | --- | --- | --- |
| 47.6% | 7.9 nM | 428% | 1950 nM | Cc1ccccc1-c1nc(NS(=O)(=O)c2cccc(N3CCC[C@H](C(=O)O)C3)n2)ccc1C(F)(F)F [Example 333, (3S)-1-(6-{[6-(2-methylphenyl)-5-(trifluoromethyl)pyridin-2-yl]sulfamoyl}pyridin-2-yl)piperidine-3-carboxylic Acid] |
| 94.2% | 14.5 nM | 482% | 1060 nM | Cc1cccc(C)c1-c1nc(NS(=O)(=O)c2ccnc(N)c2)ccc1C(F)(F)F [Example 25, 2-amino-N-(6-(2,6-dimethylphenyl)-5-(trifluoromethyl)pyridin-2-yl)pyridine-4-sulfonamide] |
| 66.2% | 0.152 nM |  | 671 nM | CC1(C(=O)O)CCCN(c2cccc(S(=O)(=O)Nc3ccc(C(F)(F)F)c(-c4ccccc4C4CCC4)n3)n2)C1 (centres unmarked) [Example 368, 1-(6-(N-(6-(2-cyclobutylphenyl)-5-(trifluoromethyl)pyridin-2-yl)sulfamoyl)pyridin-2-yl)-3-methylpiperidine-3-carboxylic Acid] |
| 39.8% | 133 nM | 233% | 2780 nM | CCc1ccccc1-c1nc(NS(=O)(=O)c2ccnc(N3CCC(C)(C(=O)O)CC3)c2)ccc1C(F)(F)F [Example 374, 1-(4-(N-(6-(2-ethylphenyl)-5-(trifluoromethyl)pyridin-2-yl)sulfamoyl)pyridin-2-yl)-4-methylpiperidine-4-carboxylic Acid] |
| 69.2% | 53.5 nM | 149% | 835 nM | Cc1ccccc1-c1nc(NS(=O)(=O)c2cccc(N3CCN(C(N)=O)CC3)n2)ccc1C(F)(F)F [Example 184, 4-(6-(N-(6-(o-tolyl)-5-(trifluoromethyl)pyridin-2-yl)sulfamoyl)pyridin-2-yl)piperazine-1-carboxamide] |
| 70.9% | 6.4 nM |  | 1380 nM | Cc1ccc(F)cc1-c1nc(NS(=O)(=O)c2cccc(N[C@@H]3CCOC[C@H]3O)n2)ccc1Cl [Example 273, N-[5-chloro-6-(5-fluoro-2-methylphenyl)pyridin-2-yl]-6-{[(3S,4R)-3-hydroxyoxan-4-yl]amino}pyridine-2-sulfonamide] |
| 77.1% | 1.6 nM | 429% | 1380 nM | Nc1cccc(S(=O)(=O)Nc2ccc(C(F)(F)F)c(-c3ccccc3C3CC3)n2)n1 [Example 28] |
| 63.2% | 20.3 nM | 468% | 2920 nM | CC1(C(=O)O)CCN(c2cccc(S(=O)(=O)Nc3ccc(C(F)(F)F)c(-c4cccc(F)c4Cl)n3)n2)CC1 [Example 242, 1-(6-(N-(6-(2-chloro-3-fluorophenyl)-5-(trifluoromethyl)pyridin-2-yl)sulfamoyl)pyridin-2-yl)-4-methylpiperidine-4-carboxylic Acid] |
| 69.5% | 95 nM | 561% | 1940 nM | COC(=O)C1(N)CCN(c2cccc(S(=O)(=O)Nc3ccc(Cl)c(-c4c(C)cccc4C)n3)n2)CC1 [Example 270, methyl 4-amino-1-(6-{[5-chloro-6-(2,6-dimethylphenyl)pyridin-2-yl]sulfamoyl}pyridin-2-yl)piperidine-4-carboxylate] |
| 61.6% | 46 nM | 346% | 1770 nM | Cc1ccc(F)cc1-c1nc(NS(=O)(=O)c2ccc(N)nc2)ccc1Cl [Example 44, 6-amino-N-(5-chloro-6-(5-fluoro-2-methylphenyl)pyridin-2-yl)pyridine-3-sulfonamide] |
| 42.3% | 16.1 nM | 279% | 2520 nM | Cc1cccc(C)c1-c1nc(NS(=O)(=O)c2cccc(N3CCNCC3=O)n2)ccc1Cl [Example 192, N-(5-chloro-6-(2,6-dimethylphenyl)pyridin-2-yl)-6-(2-oxopiperazin-1-yl)pyridine-2-sulfonamide hydrochloride] |
| 69.5% | 5.1 nM | 510% | 2090 nM | Nc1cccc(S(=O)(=O)Nc2ccc(C(F)(F)F)c(-c3ccccc3Cl)n2)n1 [Example 17, 6-amino-N-(6-(2-chlorophenyl)-5-(trifluoromethyl)pyridin-2-yl)pyridine-2-sulfonamide] |
| 69.5% | 239 nM | 395% | 3460 nM | COc1ccc(Cl)c(-c2nc(NS(=O)(=O)c3cccc(N4CCNCC4)n3)ccc2C(F)(F)F)c1 [Example 154, N-(6-(2-chloro-5-methoxyphenyl)-5-(trifluoromethyl)pyridin-2-yl)-6-(piperazin-1-yl)pyridine-2-sulfonamide hydrochloride] |
| 65.5% | 7.9 nM | 505% | 1890 nM | Nc1cccc(S(=O)(=O)Nc2ccc(C(F)(F)F)c(-c3ccccc3C(F)(F)F)n2)n1 [Example 18, 6-amino-N-(5-(trifluoromethyl)-6-(2-(trifluoromethyl)phenyl)pyridin-2-yl)pyridine-2-sulfonamide] |
| 73.9% | 67 nM | 500% | 3650 nM | Cc1cccc(C)c1-c1nc(NS(=O)(=O)c2cccc(N3CCN(C)CC3=O)n2)ccc1Cl [Example 197, N-(5-chloro-6-(2,6-dimethylphenyl)pyridin-2-yl)-6-(4-methyl-2-oxopiperazin-1-yl)pyridine-2-sulfonamide] |
| 73.4% | 24.5 nM |  | 2140 nM | Cc1ccccc1-c1nc(NS(=O)(=O)c2cccc(N[C@@H]3CCCNC3)n2)ccc1C(F)(F)F [Example 104, (R)-6-(piperidin-3-ylamino)-N-(6-(o-tolyl)-5-(trifluoromethyl)pyridin-2-yl)pyridine-2-sulfonamide Hydrochloride] |
| 61.5% | 45.8 nM | 259% | 3760 nM | Cc1ccccc1-c1nc(NS(=O)(=O)c2cccc(N3CCC4(CCC(CO)[C@H]4N)CC3)n2)ccc1C(F)(F)F (stereo partly drawn) [Example 307, 6-((1R)-1-amino-2-(hydroxymethyl)-8-azaspiro[4.5]decan-8-yl)-N-(6-(o-tolyl)-5-(trifluoromethyl)pyridin-2-yl)pyridine-2-sulfonamide] |
